Where two headings read alike, the source gives them in different places.
Legend:
[1] = tested on: melanoma; conditions: mouse melanoma model; cited from earlier work
[2] = tested on: influenza vaccine; conditions: cited from earlier work
[3] = tested on: 4T1 cells; conditions: superficial zone, day 39
Method: A histological analysis was performed on primary tumors at day 39 post-implantation, to determine the percentage of zones with tissue death in mice from the Example of Embodiment 3. All tumors were manually sectioned and fixed in a 10% formaldehyde solution overnight at 4° C. Then, samples were included in paraffin and processed to obtain 4-μm slices; slices were stained with hematoxylin and eosin (H&E). The upper, middle, and deep tumor sections were analyzed through an Olympus B×50 microscope equipped with a digital camera and using the Infinity Analyze software (v6.3.0).

[4] = tested on: 4T1 cells; conditions: day 39, five experiments
Text: It is known that the metastasis sites in the 4T1 cell-induced breast cancer murine model are lungs, brain, liver, and bone [Aslakson C. J. et al., Cancer Res. 1992, 52(6): 1399-405; Mi Z. et al., J Biol Che. 2004; 279(45): 46659-67]. Therefore, to assess the antimetastatic effect of GK-1, lungs, liver, and brain from mice in G1 and G2 groups in the Example of Embodiment 3 were recovered and fixed with a 10% formaldehyde solution to macroscopically identify any metastatic focus on these organs.

[5] = tested on: 4T1 mammary carcinoma murine model
Method: Lungs, liver, spleen, brain, and primary tumor were dissected from mice in the groups G1 and G2 of the Example of Embodiment 3, to determine the soluble factors present in the tumor microenvironment and in metastatic-associated organs; in order to obtained a protein extract, 5 mg of each tissue were weighed and placed in 300 μL of lysis buffer with protease inhibitors, then were homogenized. Finally, homogenates were centrifuged for 20 min at 13 000 rpm at 4° C., collecting the supernatants (protein extract). Additionally, serum was isolated from blood samples obtained from all mice. Serum and protein extract samples were processed through the Magpix Luminex system (xPonent software) to determine the concentration of cytokines, chemokines, and growth factors.
Data in Tables 2, 3, and 4 correspond to spleen, lung, and brain soluble factor concentrations expressed in pg/mg of protein. A random sample of 6 mice was taken from 5 independent experiments. * P<0.05.

[6] = tested on: B16-F10 cells; conditions: for Number of tumors developed (Tumors): 10 μg GK-1 i.v. weekly, 32 days, mean±standard deviation
Method: To evaluate the antimetastatic effect of GK-1 in melanoma, 2×10^4 cells of the B16-F10 line were intravenously injected to C57BL/6 mice (n=40; 20 females and 20 males). At day 16 post-implantation, mice were separated into two groups: The G1 group (10 males and 10 females) was intravenously administered with 10 μg of GK-1 dissolved in 100 μL of ISS; the G2 group (10 males, 10 females) was intravenously administered with 100 μL of ISS. Treatments were repeated weekly for 32 days after cell implantation.

[7] = tested on: TCD4+ and TCD8+ lymphocyte populations; conditions: cited from earlier work
[8] = tested on: 4T1 cells; assay: Survival rate in mice with 4T1 breast cancer; assay type: in vivo, BALB/cAnN mice; conditions: log-rank test
Method: As used in the following Examples of Embodiment, GK-1 was synthesized under good manufacturing practices by USV, LTD, with a purity higher than 95%. The peptide was intravenously administered to mice at a dose of 0.5 mg/kg.
Four to six weeks-old female and male BALB/cAnN mice were used, with a weight range of 17-23 g for females and 20-27 g for males. All mice were maintained in pathogen-free conditions, as required by the Mexican Official Regulation NOM-062-ZOO-1999.
J. et al., Cancer Res, 1992. […] 279(45):46659-67]. […] The administration was repeated weekly at different times.
To determine the survival rate in mice with breast cancer, 1×10^3 4T1 cells were implanted to 40 BALB/cAnN mice as described in the Example of Embodiment 1; 10 males and 10 females were included in each group (G1 and G2). The administration schedule described in the Example of Embodiment 1 was repeated weekly after a solid tumor development, and for 62 days after cell implant.

[9] = tested on: B16-F10 cells; assay: B16-F10 melanoma model: survival rate and lung tumor foci (four groups); assay type: in vivo, C57BL/6 mice; conditions: for survival rate: i.v. weekly, 32 days after implantation
Method: The B16 melanoma model is a lung metastasis model widely used for therapy evaluation. While the term “lung metastasis” is used to characterize this type of model, technically each lung nodule is a primary tumor.
Once the tumor is established (16 days after B16-F10 cells were implanted), mice were separated into four groups: One group was administered with a 0.10 μg/μL GK-1 solution in DMSO (0.05%); another group was administered with 0.10 μg/μL GK-1 solution in ISS; a third group received 100 μL of DMSO (0.05%); and a fourth group was administered with 100 μL of ISS; treatments were applied intravenously in all cases. Treatments were repeated weekly after a palpable tumor appeared and for 32 days after cell implantation.
In order to establish the antitumor effect of GK-1, lungs were dissected from mice in all experimental groups at the day 32 post-implantation, and were fixed in a 10% formaldehyde solution to macroscopically determine the number of tumor foci developed.

[10] = tested on: T cell, macrophage, and dendritic cells; conditions: in vitro; cited from earlier work
[11] = tested on: dendritic cells (DCs) loaded with the MAGE antigen; conditions: immunotherapy against murine melanoma; cited from earlier work
[12] = tested on: 4T1 cells
Method: The 4T1 cell line (American Type Culture Collection, Manassas, Va.) was used to induce a neoplasia emulating breast cancer; according to the natural history of the disease, metastasis to lung should be observed [Aslakson C. J. et al., Cancer Res, 1992. 52(6): 1399-405; Mi Z et al., J Biol Chem, 2004. 279(45):46659-67]. The 4T1 cell line was cultured in RPMI medium (Gibco, Grand Island, N.Y.) supplemented with 10% of heat-inactivated fetal bovine serum, 10 U/mL of penicillin, and 100 μg/mL of streptomycin, at 37° C. under 95% relative humidity and 5% CO2. Cultured cells were recovered by trypsinization (0.25% trypsin-0.53 mM EDTA) and washed three times with cold serum-free RPMI medium before subcutaneous implanting. About 1×10^3 4T1 cells were subcutaneously injected in the right mammary gland in BALB/cAnN mice. Tumor induction was determined by the appearance of 1 mm×1 mm solid tumors (palpable tumor), between 18 and 20 days after cell implantation. Once the established tumors reached that size, mice were distributed into two groups: Group 1 (G1) was intravenously administered with a solution of 10 μg of GK-1 in 100 μL of ISS (corresponding to 0.5 mg/kg); Group 2 (G2) was administered with ISS (100 μL) by the same route. The administration was repeated weekly at different times.
All animals were weighed before treatment, and tumor growth was continuously recorded. Tumor volume was calculated according to the following formula [Carlsson G. et al., J Cancer Res Clin Oncol, 1983. 105(1): 20-23]: Volume (mm^3)=πLW^2/6, where L is the largest side and W is the smallest side.
At the day 39 after cell implanting, animals were euthanized in accordance with the guidelines in the United Kingdom Coordinating Committee on Cancer Research (UKCCCR). The primary tumor, spleen, lungs, liver, and brain were dissected. In total, five separate experiments were performed.
As mentioned in the Example of Embodiment 1, once palpable tumors were developed in mice (G1: females X=6, males X=4; G2: females X=6, males X=4 per experiment), tumor volume was determined every third day for 39 days, with electronic Vernier.

G-Y-Y-Y-P-S-D-P-N-T-F-Y-A-P-P-Y-S-A (GYYYPSDPNTFYAPPYSA; tapeworm) [GK-1]
mean survival [1]: increased the mean survival
primary tumor necrosis [1]: increased primary tumor necrosis
tumor growth rate [1]: delayed tumor growth rate
infiltrate of mononuclear cells to the lung parenchyma ([2]; a few days after subcutaneous administration): promotes the infiltrate of mononuclear cells
titer of specific IgG antibodies ([2]; young and senile mice, influenza vaccine adjuvant): increasing the titer of specific IgG antibodies
area of necrotic-apoptotic cells in primary tumor [3]: increase in the area of necrotic-apoptotic cells
proportion of mice with lung metastatic foci within the 0-20 range [4]: 67%
CCL2 concentration ([5]; Brain): 3.44E+00 pg/mg of protein
CCL3 concentration ([5]; Brain): 1.40E+01 pg/mg of protein
CXCL9 concentration ([5]; Brain): 1.44E+02 pg/mg of protein
GM-CSF concentration ([5]; Brain): 2.53E+01 pg/mg of protein
IL-1α concentration ([5]; Brain): 1.44E+01 pg/mg of protein
IL-2 concentration ([5]; Brain): 6.02E+01 pg/mg of protein
IL-4 concentration ([5]; Brain): 1.36E+02 pg/mg of protein
IL-5 concentration ([5]; Brain): 1.18E+02 pg/mg of protein
IL-12 concentration ([5]; Brain): 5.29E+00 pg/mg of protein
IL-17 concentration ([5]; Brain): 8.06E+01 pg/mg of protein
TNF-α concentration ([5]; Brain): 1.26E+01 pg/mg of protein
bFGF concentration ([5]; Brain): 1.16E+04 pg/mg of protein
CCL2 concentration ([5]; Lung): 4.71E+01 pg/mg of protein
CCL3 concentration ([5]; Lung): 5.36E+01 pg/mg of protein
CXCL9 concentration ([5]; Lung): 3.88E+03 pg/mg of protein
GM-CSF concentration ([5]; Lung): 4.06E+01 pg/mg of protein
IL-1α concentration ([5]; Lung): 1.50E+02 pg/mg of protein
IL-2 concentration ([5]; Lung): 6.28E+01 pg/mg of protein
IL-4 concentration ([5]; Lung): 1.49E+02 pg/mg of protein
IL-5 concentration ([5]; Lung): 2.06E+02 pg/mg of protein
IL-12 concentration ([5]; Lung): 3.83E+00 pg/mg of protein
IL-17 concentration ([5]; Lung): 6.22E+00 pg/mg of protein
TNF-α concentration ([5]; Lung): 3.21E+01 pg/mg of protein
bFGF concentration ([5]; Lung): 3.61E+03 pg/mg of protein
CCL2 concentration ([5]; Spleen): 1.19E+01 ± 4.41E+00 pg/mg of protein
CCL3 concentration ([5]; Spleen): 4.99E+01 ± 1.51E+01 pg/mg of protein
CXCL9 concentration ([5]; Spleen): 2.31E+04 ± 1.36E+04 pg/mg of protein
GM-CSF concentration ([5]; Spleen): 3.79E+01 ± 1.60E+01 pg/mg of protein
IL-1α concentration ([5]; Spleen): 6.28E+02 ± 2.42E+02 pg/mg of protein
IL-2 concentration ([5]; Spleen): 6.65E+01 ± 1.05E+01 pg/mg of protein
IL-4 concentration ([5]; Spleen): 7.03E+01 ± 9.56E+01 pg/mg of protein
IL-5 concentration ([5]; Spleen): 1.65E+02 ± 1.00E+02 pg/mg of protein
IL-12 concentration ([5]; Spleen): 8.06E+01 ± 3.61E+01 pg/mg of protein
IL-17 concentration ([5]; Spleen): 2.98E+00 ± 3.01E+00 pg/mg of protein
TNF-α concentration ([5]; Spleen): 1.00E+02 ± 2.46E+01 pg/mg of protein
bFGF concentration ([5]; Spleen): 2.30E+04 ± 3.54E+03 pg/mg of protein
cytokine profile in serum or liver samples versus G2 ([5]; serum, liver): no differences were found
Distant (tumors at sites other than the lungs: liver, brain, intestine) ([6]; Females): 1/10
Lung (mice with lung tumors) ([6]; Females): 8/10
Number of tumors developed (Tumors) ([6]; Females): 62.9 ± 48.1
Distant (tumors at sites other than the lungs: liver, brain, intestine) ([6]; Males): 0/10
Lung (mice with lung tumors) ([6]; Males): 8/10
Number of tumors developed (Tumors) ([6]; Males): 77.0 ± 37.6
antimetastatic effect in melanoma ([6]; lung tumor foci G1 versus G2): ineffective to stop metastasis in melanoma
proliferation of TCD4+ and TCD8+ lymphocyte populations [7]: increase the proliferation
survival with respect to saline-treated mice (Kaplan-Meyer) [8]: significantly increased survival
survival rate ([9]; GK-1 dissolved in DMSO (0.05%)): 25%
survival rate ([9]; GK-1 dissolved in ISS): 57.14%
number of tumor foci developed in lungs versus other treatments ([9]; day 32, GK-1 in DMSO or ISS versus vehicles): no statistically significant differences
immune cell activation (CD80/86, MHC-II expression; IFN-γ, TNF-α, CCL2 secretion) [10]: promoting T cell, macrophage, and dendritic cells activation
activation of MAGE-loaded DCs [11]: increase in the activation of these DCs
Tumor weight ([12]; Exp 1, day 39): 0.825 ± 0.391 g
Tumor weight ([12]; Exp 2, day 39): 0.991 ± 0.507 g
Tumor weight ([12]; Exp 3, day 39): 1.150 ± 0.939 g
Tumor weight ([12]; Exp 4, day 39): 1.477 ± 0.889 g
Tumor weight ([12]; Exp 5, day 39): 0.587 ± 0.339 g
Tumor weight ([12]; Total of five experiments, day 39): 1.044 ± 0.697 g
reduction in tumor weight with respect to untreated mice ([12]; day 39): 27.8%
Tumor weight ([12]; day 39, text, five experiments): 1.04 ± 0.70 g
tumor volume versus untreated mice ([12]; every third day for 39 days): lower tumor volume than untreated mice, the difference was not statistically significant

— patent US11020449B2, “Use of the GK-1 peptide as an antitumoral and/or antimetastatic agent” (UNIVERSIDAD NACIONAL AUTÓNOMA DE MÉXICO, priority 2016, dated 2021)
